Test: Inhibition of human recombinant PHD2 (181-426) expressed in Escherichia coli BL21 (DE3) by TR-FRET assay

## O=C(O)c1ccnc(C(=O)O)c1
  IC50: 1.91 µM

## O=C(O)/C=C/C(=O)O [FUMARIC ACID]
  IC50: 19.1 µM
